Measurements from EPA's ToxValDB 9.5 (doi:10.2903/j.efsa.2011.1958).
In brackets after ≈: the same amount, converted by molar mass. Several values for one entry are separate records, joined by “and”; a condition that tells them apart may be missing. Equal entries are not always repeated.

Legend:
[1] = system: Tagia sp.; details: acute; duration: 14 days; mortality
[2] = system: Oncorhynchus mykiss; details: acute; duration: 96 hours; mortality
[3] = system: Daphnia magna; details: chronic/long-term; duration: 21 days; reproduction
[4] = system: Colinus virginianus; details: acute, oral, mortality
[5] = system: Anas platyrhynchos; details: acute; oral; unspecified; mortality
[6] = system: Apis mellifera; details: acute; duration: 48 hours; oral; unspecified; mortality
[7] = system: Pimephales promelas; details: chronic/long-term; duration: 28 days; growth
[8] = system: Landoltia sp.; details: acute; duration: 14 days; growth
[9] = system: Rattus norvegicus
[10] = system: Typhlodromus pyri; assay: LR50; higher = less toxic; details: acute; duration: 48 hours; reproduction
[11] = system: Aphidius rhopalosiphi; assay: LR50; higher = less toxic; details: acute; duration: 7 days; reproduction

## CN(C)C(=O)Nc1cccc(C(F)(F)F)c1 [Fluometuron]
[1]
  LC50: 1000 mg/kg
[2]
  LC50: 30 µg/mL (≈ 129 µM)
[3]
  NOEC: 6.6 mg/L
[4]; diet
  LC50: > 1600 mg/kg and 4310 mg/kg
[4]
  LD50: > 2150 mg/kg
[5]
  LD50: 2970 mg/kg
[6]
  LD50: > 34 µg/piece
[7]
  NOEC: 3.1 mg/L
[8]
  NOEC: 0.185 mg/L
[9]; acute, oral, mortality
  LD50: > 5000 mg/kg
[9]; chronic, duration: 104 weeks, hematological
  NOAEL: 0.553 mg/kg-day
[9]; developmental, development
  NOEL: 24 mg/kg-day
[9]; reproduction developmental, other
  NOAEL: 0.8 mg/kg-day
[10]
  LR50: 28.9 g/ha
[11]
  LR50: 398 g/ha
